Here are results for three molecules from patent US20020077322A1, “Protection of neurons against glutamate-induced damage in glaucoma and other conditions” (priority 2000, published 2002).

Assay type in all cases: in vivo, C57/BL6 mice
Series [1] relates to retinal ganglion cells. The series can be described thus: Effect of cannabinoid antagonists on WIN protection of NMDA-treated retinal ganglion cells (Example 3). Conditions: preliminary tests.
Description: A topical application of 0.5% proparacaine hydrochloride was administered prior to intravitreal injections. A small incision was made with a 22-gauge needle in the dorsal limbus, through the conjunctiva and sclera. A Hamilton syringe was passed through this incision at a 40 to 50 degree angle to the equator to administer the solution. All eyes were injected with 0.5 μl of solution. All procedures were performed under microscopy. […] These mice were not used in the analysis.
Tissue Preparation: Flat mount preparations of the retinae and counts of cells in the retinal ganglion cell layers were performed to evaluate cell loss. Ten days after intravitreal injections, animals were euthanized by an intraperitoneal overdose injection of pentobarbital. Animals were immediately perfused with 4% paraformaldehyde, and the eyes enucleated. The retinae were dissected and mounted onto gelatinized slides, ganglion cell layer up. […]
Series [2] relates to retinal ganglion cells. The series is described as follows: Topical WIN55212-2 after intravitreal NMDA; counts of surviving retinal ganglion cells (Example 2). How it is done:
(§1) Experiments were performed on adult C57/BL6 mice of an average of 4 months, weighing 15-25 g. Animals were given food and water ad libitum. All studies were conducted in accordance with the principles and procedures outlined in the National Institute of Health (NIH) Guide for the Care and Use of Laboratory Animals.
Two sterile solutions were administered by intravitreal injection: balanced saline solution, and NMDA (Sigma). The NMDA solution was comprised of 320 mM NMDA in balanced saline solution (net of 160 nmol of NMDA injected per eye).
(§2) Intravitreal Injections: Mice were anaesthetized by intraperitoneal injection of 0.017 ml/g body weight of a solution containing 1.75% tribromoethanol and 1.75% tertiary amyl alcohol. A topical application of 0.5% proparacaine hydrochloride was administered prior to intravitreal injections. A small incision was made with a 22-gauge needle in the dorsal limbus, through the conjunctiva and sclera. A Hamilton syringe was passed through this incision at a 40 to 50 degree angle to the equator to administer the solution. All eyes were injected with 0.5μl of solution. All procedures were performed under microscopy. Occasionally this procedure produced cataracts in mice (less than 5%) due to damage to the lens with the syringe. These mice were not used in the analysis.
Topical Application of cannabinoid: A topical application solution of WIN55212-2 (Sigma) was prepared in 2-hydroxypropyl-β-cyclodextrin (Sigma). This solution contained 2.4 mg of WIN55212-2 in 1 ml 2-hydroxypropyl-β-cyclodextrin.
10 μl of this WIN55212-2 solution was applied to the anterior surface of the eye. In the experiments described, it was applied three times daily on one eye only. The applications of the WIN solution began one day after the NMDA injections were made, to allow time for the surface of the eye to heal, and the topical applications were made for 9 days. Thus, while each eye received the NMDA injections, only one eye of each animal had the WIN solution applied onto it.
Tissue Preparation: Flat mount preparations of the retinae and counts of cells in the retinal ganglion cell layers were performed to evaluate cell loss. Ten days after intravitreal injections, animals were euthanized by an intraperitoneal overdose injection of pentobarbital. Animals were immediately perfused with 4% paraformaldehyde, and the eyes enucleated. The retinae were dissected and mounted onto gelatinized slides, ganglion cell layer up. Several radial cuts were made at the periphery, and the surface was cleared and flattened with a fine brush (camel hair, size 0). […]
Morphometric Analysis: The ganglion cell layer was imaged at 400X and 630X and cells were counted within 120×120 μm square grids. […]

Series [3] concerns retinal ganglion cells. The series can be described thus: Intravitreal NMDA with or without co-injected WIN 55,212-2; counts of surviving cells in the retinal ganglion cell layer (Example 1). The protocol:
as §1
Three sterile solutions were administered by intravitreal injection: balanced saline solution, NMDA (Sigma) and NMDA plus WIN 55,212-2 (Sigma). The NMDA solution was comprised of 320 mM NMDA in balanced saline solution (net of 160 nmol of NMDA injected per eye). The WIN solution contained 0.5 mM WIN 55,212-2 in the NMDA solution using a DMSO vehicle (less than 0.1% of solution) to carry WIN (net of 0.25 nmol of WIN injected per eye).
as §2, with “Injections” for “Injections:”, “0.5 μl” for “0.5μl”
Tissue Preparation Flat mount preparations of the retinae and counts of cells in the retinal ganglion cell layers were performed to evaluate cell loss. Ten days after intravitreal injections, animals were euthanized by an intraperitoneal overdose injection of pentobarbital. Animals were immediately perfused with 4% paraformaldehyde, and the eyes enucleated. The retinae were dissected and mounted onto gelatinized slides, ganglion cell layer up. Several radial cuts were made at the periphery, and the surface was cleared and flattened with a fine brush (camel hair, size 0). The flat mounted retinae were immersed overnight in a solution containing 10% formaldehyde and 90% alcohol. The sections were subsequently dehydrated and stained with 0.5-1% cresyl violet and enclosed with coverslips.
Morphometric Analysis (Quantification of Cell Loss in the Retinal Ganglion Cell Layer) The ganglion cell layer was imaged at 400×and cells were counted within 70×70 um grids. […] Quandrant counts from each retina were averaged to give the value for each eye. Morphologically distinguishable glial cells and vascular endothelial cells were excluded from the cell count, but no attempt was made to distinguish between ganglion and amacrine cells. […]

The mark [4] stands for this setting: intravitreal, 160 nmol NMDA per eye, 10 day period, vs saline eye.
[5] abbreviates: single intravitreal application, 0.25 nmol WIN per eye with NMDA, 10 days.

For the molecule `COc1ccc(C(=O)c2c(C)n(CCN3CCOCC3)c3cc(I)ccc23)cc1` [AM 630], the “cell counts with CB2 antagonist in combination with WIN and NMDA” value in series [1] is reported as “same cell counts as the WIN+NMDA eye”.
With `CN[C@H](CC(=O)O)C(=O)O` [NMDA, N-methyl-D-aspartate], the “loss of retinal ganglion cells caused by NMDA” value in series [2] (setting [4]) and in series [3] (setting [4]) was 70% throughout.
For the molecule `Cc1c(C(=O)c2cccc3ccccc23)c2cccc3c2n1[C@H](CN1CCOCC1)CO3` [WIN], in series [2] (NMDA-treated retina, unilateral topical WIN55212-2), the “excitotoxic damage in ganglion cell layer, photomicrographs (FIG. 4)” value is on record as “ameliorated the excitotoxic damage”. Also, in series [2] (WIN applied topically to the other eye, presumably systemic delivery), the “retinal ganglion cells protected, contralateral eye (no WIN directly applied)” value is on record as “about 25%”. For the same molecule, the “resulting loss of ganglion cells, NMDA plus topical WIN, treated eye” value in series [2] (topical WIN on days 2-9, 10 day period) was 30%. In addition, the “increase in number of surviving ganglion cells (NMDA+WIN vs NMDA eye)” value in series [3] (FIG. 5 left pair of bars, data taken from Example 1) is recorded as “by a factor of two”. Moreover, in series [3] (setting [5]), the “diminution of NMDA-induced ganglion cell loss” value was determined as 80% and the “resulting loss of ganglion cells with NMDA plus WIN” value is reported as 30%.
